According to article PMC12412324, “Design, synthesis, and evaluation of novel pinane-based thiazolidione derivatives with anti-glioblastoma activity” (Journal of Enzyme Inhibition and Medicinal Chemistry, 2025):
“And” between values parts separate entries of the source, which are not always exact repeats. Identical values can stand only once.

Tests used:
U251 = assay: CCK-8 cell viability assay, U251; format: cell-based; conditions: Homo sapiens, U-251, 72 h, CCK-8, 72 h, mean ± SD of three independent experiments
Procedure: (§1) The U87MG cell line (catalogue iCell-h224) and U251MG cell line (catalogue iCell-h219) were purchased from iCell Bioscience Inc (Shanghai) cell bank. T98G cell line was obtained from Yining Zhang’s group. All cells were cultured in DMEM supplemented with 10% (v/v) FBS and penicillin-streptomycin in a humidified incubator at 37 °C under 5% CO2. The different compounds were dissolved in DMSO at the concentration of 10 mM and diluted in serum-free medium. The GBM cells were seeded into 96-well microplates at the density of 6000 cells/well and incubated for 24 h. Fresh media supplemented with different concentrations of the compounds were added, and the cells were cultured for 72 h. The CCK-8 reagent (TargetMol, C0005) was added to each well and the cells were incubated for 4 h at 37 °C. […] the absorbance was measured at […] using a microplate reader (Genios Tecan). An untreated control group was included and its viability was set as 100%. IC50 value of the two probes was calculated using GraphPad Prism 5.0.

T98G = assay: CCK-8 cell viability assay, T98G; format: cell-based; conditions: Homo sapiens, T98G, 72 h, CCK-8, 72 h, mean ± SD of three independent experiments
Procedure: as §1

U87 = assay: CCK-8 cell viability assay, U87; format: cell-based; conditions: Homo sapiens, U-87 MG, 72 h, CCK-8, 72 h, mean ± SD of three independent experiments
Procedure: as §1

LO2 = assay: CCK-8 cytotoxicity, normal human cell line LO2; format: cell-based; conditions: L02, mean ± SD of three independent experiments
[1] = system: GBM cell lines (U87, T98G, and U251); assay: CCK-8 anti-proliferation, three GBM cell lines taken together; format: cell-based; conditions: read-out: IC50 values against all three GBM cell lines
Procedure: as §1

U251 cells [2] = assay: Annexin V-FITC/PI apoptosis flow cytometry; format: cell-based; conditions: U251, C5 10 μM, 48 h
Procedure: (§2) U251 (1 × 10^5 cells/well) in logarithmic growth phase were transferred into 6-well microplates and cultured for 12 h. […] Annexin V-FITC/PI staining kit (Yeasen, Shanghai, China) was used to detect cell apoptosis. The cell cycle distribution was analysed by staining with a cell cycle analysis kit. Intracellular ROS levels were also detected using a ROS assay kit (Yeasen, Shanghai, China). All assays were performed as per the manufacturer’s instructions, and the stained cells were analysed by flow cytometry (Beckman Coulter, Miami, FL) to quantify apoptosis rates, cell cycle distribution, and ROS levels as appropriate.

U251 cells [3] = assay: Cell cycle distribution by flow cytometry; format: cell-based; conditions: U251, C5 2.5, 5, 10 μM, 48 h
Procedure: as §2

CDK2 [4] = molecular target: T1, CDK2 (Homo sapiens, UniProt P24941); assay: Cellular thermal shift assay (CETSA); format: binding; conditions: U251, C5 50 and 100 µM, 40–70 °C, compared to control group
T1 construct: endogenous in cells; host or cells: U251 cells (lysate)
Procedure: U251 cells in logarithmic growth were harvested and lysed with protease inhibitors and phosphorylase inhibitors, followed by ultrasonic disruption and ice extraction for 1 h. After that, the lysate was divided into three parts evenly and incubated with DMSO, 50 µM of C5, and 100 µM of C5 for 1 h at room temperature. Subsequently, samples were heated in the PCR machine for 10 min in indicated temperature gradients (40–70 °C), respectively. Finally, samples were centrifuged at 14,000 × g for 30 min at 4 °C to remove aggregates, and the resulting supernatant was analysed with western blotting.

CDK2 [5] = molecular target: T1, CDK2; assay: Drug affinity responsive target stability (DARTS) assay; format: binding; conditions: U251 lysate, C5 50 and 100 μM, pronase 30 min, versus DMSO
Procedure: U251 cells were plated in 10 cm dishes. After overnight, the cells were washed by precooled PBS, and lysed by NP-40 lysis buffer for 30 min. Next, lysates were centrifuged at 13000 rpm for 15 min at 4 °C, and protein concentration was determined using a BCA protein assay kit (Solarbio, PC0020). The supernatants were divided into four 50 μL aliquots and incubated with DMSO or compound C5 (50 and100μM) for 30 min at room temperature. Then, the 5 μL of Pronase (The method of preparing the stock solution is 1 μg of Pronase in 200 μg of lysate, the effect concentration which is diluted by ultrapure water to 200X/400X/600X), and the reaction was stopped by 5× loading buffer. Protein samples were boiled and analysed by using Western blot.

U251 cells [6] = assay: Transwell invasion experiment (Matrigel); format: cell-based; conditions: U251, C5 2.5, 5, 10 µM, 24 h, dose-dependent
Procedure: Matrigel-coated transwell chambers (24-well; 8-μm pore size, Corning, New York, NY, USA) were used to evaluate the invasion capability of GBM cells. The U251 cells incubated with different doses of C5 (0, 2.5, 5, and 10 μM) for 24 h were seeded on Matrigel-coated transwell chambers at the density of 2 × 10^4/well in a serum-free medium. After culturing for 24 h, the cells that invaded through Matrigel to the lower surface of the membrane were fixed with […] and stained with 0.1% crystal violet. The cells were counted under an inverted microscope in at least 5 random fields per well.

U251 cells [7] = assay: Intracellular ROS by flow cytometry (DCFH-DA); format: cell-based; conditions: U251, 5 μM C5, DCFH-DA
Procedure: U251 (1 × 10^5 cells/well) in logarithmic growth phase were transferred into 6-well microplates and cultured for 12 h. Therefore, U251 cells were treated with C5 (0, 2.5, 5, and 10 μM) for 24 h. Annexin V-FITC/PI staining kit (Yeasen, Shanghai, China) was used to detect cell apoptosis. The cell cycle distribution was analysed by staining with a cell cycle analysis kit. Intracellular ROS levels were also detected using a ROS assay kit (Yeasen, Shanghai, China). All assays were performed as per the manufacturer’s instructions, and the stained cells were analysed by flow cytometry (Beckman Coulter, Miami, FL) to quantify apoptosis rates, cell cycle distribution, and ROS levels as appropriate.

U251 cells [8] = assay: Mitochondrial membrane potential (JC-1); format: cell-based; conditions: U251, C5 2.5, 5, 10 μM, 24 h
Procedure: U251 cells were seeded in 6-well microplates at the density of 1.5 × 10^5 cells/well and cultured overnight. Fresh medium containing different doses of C5 (0, 2.5, 5, and 10 μM) was added, and the cells were cultured for 24 h. The cells were stained using the JC-1 kit (Sigma-Aldrich, USA) according to the manufacturer’s instructions and observed by fluorescence microscopy. The changes in the ratio of the red and green fluorescence intensities were calculated to evaluate MMP.

[9] = system: apoptosis-related and autophagy-related proteins in U251 cells; assay: Western blotting of apoptosis-related and autophagy-related proteins; format: cell-based; conditions: immunoblot
Procedure: The protein content in the lysates was measured using a BCA protein assay kit, and 20 μg protein per sample was separated by SDS-PAGE and transferred to PVDF membranes (Merck Millipore, Burlington, MA, USA). After blocking with 5% skim milk in Tris buffered saline-Tween (TBS-T) at room temperature for 2h, the blots were incubated overnight with the following primary antibodies at 4 °C: mouse anti-GAPDH (ab8245, 1:10000), rabbit anti-Bax (ab32503, 1:5000), anti-Bcl-2 (ab32124, 1:1000), anti-caspase 3 (ab32351, 1:5000), anti-cleaved caspase 3 (ab32042, 1:500), anti-cleaved PARP-1 (ab32561, 1:1000), anti-LC3B (ab192890, 1:2000), anti-p62 (ab109012, 1:10000), anti-PARP-1 (ab32138, 1:10000). Following three washes with TBS-T, the membranes were incubated with corresponding horseradish peroxidase-conjugated secondary antibodies (1:10000) at room temperature for 90 min, and washed thrice with TBS-T. The bands were visualised using the Minichem@610 Chemiluminescence imager (SAGCEREATION, Beijing) on the chemiluminescence channel.

[10] = system: U251 multicellular tumour spheroids; assay: 3D spheroid assay (MCTSs, calcein-AM/PI); format: cell-based; conditions: C5 24 h, dose-dependent
Procedure: Malignant glioblastoma tumour cells U251 were seeded in cell-repellent 96-well U-bottom plates (Sbio™), and cultured for 72 h to allow spheroid formation. […] Spheroids were stained with PI and Calcein-AM, and observed under a fluorescence microscope.

[11] = U251, C5 treatment 24 h, concentration-dependent

With CN1C(=O)C(=Cc2ccc(O)cc2)SC1=NN=CC1=CCC2CC1C2(C)C (stereo not shown) [C5, 2-(((6,6-Dimethylbicyclo[3.1.1]hept-2-en-2-yl)methylene)hydrazineylidene)-5–(4-hydroxybenzylidene)-3-methylthiazolidin-4-one] the IC50 (U251) was 3.12 ± 0.45 µM, the IC50 (T98G) was 4.25 ± 0.38 µM and the IC50 (U87) was 3.98 ± 0.34 µM. For the same compound, the IC50 (LO2) was 43.2 ± 0.21 µM, the IC50 [1] was 3.12 to 4.25 µM and < 5 µM and the apoptosis rate (U251 cells [2]) was 48.56%. The cell cycle distribution (U251 cells [3]) was “decrease in the G2/M population, with a concomitant increase in the S phase population”, the “thermal stability of CDK2 (CETSA)” value (CDK2 [4]) was “substantially increased” and the “CDK2 stability to pronase digestion (DARTS)” value (CDK2 [5]) was “enhanced stability”. For the same compound, the “number of viable cells that invaded through the Matrigel” value (U251 cells [6]) was “significantly decreased”, the “intracellular ROS levels” value (U251 cells [7]) was “significantly increased” and the “mitochondrial membrane potential, JC-1 fluorescence” value (U251 cells [8]) was “dose-dependent decrease in red fluorescence”. The Bax expression ([9]; U251, C5 treatment 24 h) was “upregulation”, the Bcl-2 expression ([9]; U251, C5 treatment 24 h) was “dose-dependent downregulation” and the PARP cleavage [9, 11] was “enhanced”. The caspase-3 activation [9, 11] was “enhanced”, the LC3B-II expression ([9]; U251, C5 treatment) was “significantly enhanced” and the P62 expression ([9]; U251, C5 treatment) was “significantly enhanced”. For the same compound, the “viability of U251 cells in a 3D model” value [10] was “decreased”.
